# Reference: paper PMC4460250, “Systems Pharmacology Dissecting Holistic Medicine for Treatment of Complex Diseases: An Example Using Cardiocerebrovascular Diseases Treated by TCM” (Evidence-based Complementary and Alternative Medicine : eCAM, 2015)
# Legend:
# [1] = in vivo
# [2] = in vivo; cited from earlier work
Compound,Class(High: HIA value ≥0.7; Low: HIA value < 0.7) [1],HIA(Human Intestinal Absorption) [2]
CN1CCCC1c1cccnc1 (stereo in doubt) [Nicotine(R)],High (key: High: HIA value ≥0.7; Low: HIA value < 0.7),1
CC(C)(C)NCC(O)COc1ccccc1C1CCCC1 (stereo in doubt) [Penbutolol(R)],High (key: High: HIA value ≥0.7; Low: HIA value < 0.7),1
CCCNC1CCc2nc(N)sc2C1 (stereo in doubt) [Pramipexole(R)],High (key: High: HIA value ≥0.7; Low: HIA value < 0.7),0.8
CCN1CCCC1CNC(=O)c1c(OC)ccc(Br)c1OC (stereo in doubt) [Remoxipride(R)],High (key: High: HIA value ≥0.7; Low: HIA value < 0.7),1
CCOc1cc(CC(=O)NC(CC(C)C)c2ccccc2N2CCCCC2)ccc1C(=O)O (stereo in doubt) [Repaglinide(R)],High (key: High: HIA value ≥0.7; Low: HIA value < 0.7),1
C#CCN(C)C(C)Cc1ccccc1 (stereo in doubt) [Selegiline(S)],High (key: High: HIA value ≥0.7; Low: HIA value < 0.7),1
CC(C)(C)NCC(O)COc1nsnc1N1CCOCC1 (stereo in doubt) [Timolol(R)],High (key: High: HIA value ≥0.7; Low: HIA value < 0.7),0.95
CC(=O)NCCCS(=O)(=O)O [Acamprosate],Low (key: High: HIA value ≥0.7; Low: HIA value < 0.7),0.11
C[C@H]1O[C@H](O[C@H]2[C@H](O)[C@@H](O)[C@@H](O[C@H]3[C@H](O)[C@@H](O)C(O)O[C@@H]3CO)O[C@@H]2CO)[C@H](O)[C@@H](O)[C@@H]1N[C@H]1C=C(CO)[C@@H](O)[C@H](O)[C@H]1O (stereo partly drawn) [Acarbose],Low (key: High: HIA value ≥0.7; Low: HIA value < 0.7),0.02
CCCC(=O)Nc1ccc(OC[C@H](O)CNC(C)C)c(C(C)=O)c1 [Acebutolol(R)],High (key: High: HIA value ≥0.7; Low: HIA value < 0.7),0.85
CCCC(=O)Nc1ccc(OC[C@@H](O)CNC(C)C)c(C(C)=O)c1 [Acebutolol(S)],High (key: High: HIA value ≥0.7; Low: HIA value < 0.7),0.85
CC(C)(C)NC[C@H](O)c1ccc(O)c(CO)c1 [Albuterol(R)],High (key: High: HIA value ≥0.7; Low: HIA value < 0.7),0.83
CC(C)(C)NC[C@@H](O)c1ccc(O)c(CO)c1 [Albuterol(S)],High (key: High: HIA value ≥0.7; Low: HIA value < 0.7),0.83
Cc1nnc2n1-c1ccc(Cl)cc1C(c1ccccc1)=NC2 [Alprazolam],High (key: High: HIA value ≥0.7; Low: HIA value < 0.7),0.9
C=CCc1ccccc1OC[C@H](O)CNC(C)C [Alprenolol(R)],High (key: High: HIA value ≥0.7; Low: HIA value < 0.7),0.93
C=CCc1ccccc1OC[C@@H](O)CNC(C)C [Alprenolol(S)],High (key: High: HIA value ≥0.7; Low: HIA value < 0.7),0.93
N=C(N)NC(=O)c1nc(Cl)c(N)nc1N [Amiloride],Low (key: High: HIA value ≥0.7; Low: HIA value < 0.7),0.5
CC[C@]1(c2ccc(N)cc2)CCC(=O)NC1=O [Aminoglutethimide(R)],High (key: High: HIA value ≥0.7; Low: HIA value < 0.7),1
CC[C@@]1(c2ccc(N)cc2)CCC(=O)NC1=O [Aminoglutethimide(S)],High (key: High: HIA value ≥0.7; Low: HIA value < 0.7),1
CCC1(CCC(C)C)C(=O)NC(=O)NC1=O [Amobarbital],High (key: High: HIA value ≥0.7; Low: HIA value < 0.7),0.95
COc1ccccc1OCCNC[C@H](O)c1ccc(C)c(S(N)(=O)=O)c1 [Amosulalol(R)],High (key: High: HIA value ≥0.7; Low: HIA value < 0.7),1

Compound,Class(High: HIA value ≥0.7; Low: HIA value < 0.7) [1],HIA(Human Intestinal Absorption) [2]
COc1ccccc1OCCNC[C@@H](O)c1ccc(C)c(S(N)(=O)=O)c1 [Amosulalol(S)],High (key: High: HIA value ≥0.7; Low: HIA value < 0.7),1
N#C[C@H](O[C@@H]1O[C@H](CO[C@@H]2O[C@H](CO)[C@@H](O)[C@H](O)[C@H]2O)[C@@H](O)[C@H](O)[C@H]1O)c1ccccc1 [Amygdalin(S)],Low (key: High: HIA value ≥0.7; Low: HIA value < 0.7),0.05
Cc1cc(=O)n(-c2ccccc2)n1C [Antipyrine],High (key: High: HIA value ≥0.7; Low: HIA value < 0.7),0.97
NC[C@H](CC(=O)O)c1ccc(Cl)cc1 [Baclofen(R)],High (key: High: HIA value ≥0.7; Low: HIA value < 0.7),0.95
NC[C@@H](CC(=O)O)c1ccc(Cl)cc1 [Baclofen(S)],High (key: High: HIA value ≥0.7; Low: HIA value < 0.7),0.95
N[C@H](CO)C(=O)NNCc1ccc(O)c(O)c1O [Benserazide(R)],High (key: High: HIA value ≥0.7; Low: HIA value < 0.7),0.7
N[C@@H](CO)C(=O)NNCc1ccc(O)c(O)c1O [Benserazide(S)],High (key: High: HIA value ≥0.7; Low: HIA value < 0.7),0.7
CCN(CC)CCCOC(=O)C1(c2ccccc2)CC2CCC1C2 (stereo not drawn) [Bornaprine],High (key: High: HIA value ≥0.7; Low: HIA value < 0.7),1
O=C1CN=C(c2ccccn2)c2cc(Br)ccc2N1 [Bromazepam],High (key: High: HIA value ≥0.7; Low: HIA value < 0.7),0.84
C[C@@H](NC(C)(C)C)C(=O)c1cccc(Cl)c1 [Bupropion(R)],High (key: High: HIA value ≥0.7; Low: HIA value < 0.7),0.87
C[C@H](NC(C)(C)C)C(=O)c1cccc(Cl)c1 [Bupropion(S)],High (key: High: HIA value ≥0.7; Low: HIA value < 0.7),0.87
CN(C)C(=O)O[C@H]1N=C(c2ccccc2)c2cc(Cl)ccc2N(C)C1=O [Camazepam(R)],High (key: High: HIA value ≥0.7; Low: HIA value < 0.7),1
CN(C)C(=O)O[C@@H]1N=C(c2ccccc2)c2cc(Cl)ccc2N(C)C1=O [Camazepam(S)],High (key: High: HIA value ≥0.7; Low: HIA value < 0.7),1
CC1(C)S[C@@H]2[C@H](NC(=O)C(C(=O)Oc3ccccc3)c3ccccc3)C(=O)N2[C@H]1C(=O)O (stereo partly drawn) [Carfecillin(R)],High (key: High: HIA value ≥0.7; Low: HIA value < 0.7),0.99
CC(C)(C)NC[C@@H](O)COc1cccc2c1CCC(=O)N2 [Carteolol(R)],High (key: High: HIA value ≥0.7; Low: HIA value < 0.7),0.95
CC(C)(C)NC[C@H](O)COc1cccc2c1CCC(=O)N2 [Carteolol(S)],High (key: High: HIA value ≥0.7; Low: HIA value < 0.7),0.95
COc1ccccc1OCCNC[C@@H](O)COc1cccc2[nH]c3ccccc3c12 [Carvedilol(R)],High (key: High: HIA value ≥0.7; Low: HIA value < 0.7),0.8
COc1ccccc1OCCNC[C@H](O)COc1cccc2[nH]c3ccccc3c12 [Carvedilol(S)],High (key: High: HIA value ≥0.7; Low: HIA value < 0.7),0.8
CO/N=C(\C(=O)N[C@@H]1C(=O)N2C(C(=O)OC(C)OC(C)=O)=C(COC(N)=O)CS[C@H]12)c1ccco1 (stereo partly drawn) [Cefuroximeaxetil(R)],Low (key: High: HIA value ≥0.7; Low: HIA value < 0.7),0.36
OC(O)C(Cl)(Cl)Cl [Chloral_hydrate],High (key: High: HIA value ≥0.7; Low: HIA value < 0.7),1
O=C(O)CCCc1ccc(N(CCCl)CCCl)cc1 [Chlorambucil],High (key: High: HIA value ≥0.7; Low: HIA value < 0.7),1
